The target of assay [1] is T1, rat pituitary GH-RH receptors (Rattus norvegicus, UniProt Q02644).
T1 construct: from tissue; host or cells: anterior pituitary of male Sprague-Dawley rats, crude membranes
T1 sequence (Q02644 23-464): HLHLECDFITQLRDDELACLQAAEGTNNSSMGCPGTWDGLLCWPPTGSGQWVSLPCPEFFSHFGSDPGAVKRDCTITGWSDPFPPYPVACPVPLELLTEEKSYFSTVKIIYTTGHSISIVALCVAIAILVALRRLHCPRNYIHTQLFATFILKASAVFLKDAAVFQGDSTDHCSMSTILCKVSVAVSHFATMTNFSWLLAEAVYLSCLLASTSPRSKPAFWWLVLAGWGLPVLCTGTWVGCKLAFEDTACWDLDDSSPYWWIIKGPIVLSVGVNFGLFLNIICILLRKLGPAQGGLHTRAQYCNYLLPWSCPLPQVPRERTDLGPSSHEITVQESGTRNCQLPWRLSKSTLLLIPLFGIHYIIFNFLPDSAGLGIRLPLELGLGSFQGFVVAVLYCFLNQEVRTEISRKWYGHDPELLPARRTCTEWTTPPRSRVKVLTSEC
Description: GH-RH radioreceptor binding assay, competition with labelled [His1,Nle27]hGH-RH(1-32)NH2. To be noted: rat anterior pituitary membrane homogenates; read-out: Ki values, K. As to the method: GH-RH Binding Assay. A sensitive radioreceptor binding assay was developed to determine the binding characteristics of the antagonists of GH-RH (G. Halmos, A. V. Schally et al., Receptor 3, 87-97, 1993), hereby incorporated by reference. The assay is based on binding of labelled [His^1, Nle^27 ]hGH-RH(1-32)NH2 to rat anterior pituitary membrane homogenates. Iodinated derivatives of [His^1, Nle^27 ]hGH-RH(1-32)NH2 are prepared by the chloramine-T method (F. C. Greenwood et al., Biochemistry 89:114-123, 1963), hereby incorporated by reference. Pituitaries from male Sprague-Dawley rats (250-300 g) are used to prepare crude membranes. For saturation binding analyses, membrane homogenates are incubated with at least 6 concentrations of [His^1,125I-Tyr^10,Nle^27 ]hGH-RH(1-32)NH2, ranging from 0.005 to 0.35 nM in the presence or absence of excess unlabelled peptide (1 μM).
The pellet is counted for radioactivity in a γ-counter. The affinities of the antagonist peptides tested to rat pituitary GH-RH receptors are determined in competitive binding experiments. The final binding affinities are estimated by Ki (dissociation constant of the inhibitor-receptor complex) and are determined by the Ligand PC computer program of Munson and Rodbard as modified by McPherson. Relative affinities compared to [Ac-Tyr^1, D-Arg^2 ]hGH-RH(1-29)NH2, the Standard antagonist, are calculated as the ratio of Ki of the tested GH-RH antagonist to the Ki of the Standard antagonist.

Assay [2] concerns GH release induced by 1 nM hGH-RH(1-29)NH2 in superfused rat pituitary cells. Description: Inhibition of hGH-RH(1-29)NH2-induced GH release in superfused rat pituitary system. It is filed as cell-based. Conditions: 30 nM peptide; for Inhibition of GH release (%) 0 min: 0 min response; for Inhibition of GH release (%) 30 min: 30 min response; for Inhibition of GH release (%) 60 min: 60 min response; for Inhibition of GH release (%) 90 min: 90 min response; for Inhibition of GH release (%) 120 min: 120 min response. The protocol:
Superfused Rat Pituitary System. The analogues were tested in vitro in a test described earlier (S. Vigh and A. V. Schally, Peptides 5:241-[…], 1984) with modification (Z. Rekasi and A. V. Schally, P. N. A. S. 90:2146-2149, 1993).
Briefly, the cells are preincubated with peptides for 9 minutes (3 mL) at various concentrations. Immediately after the incubation, 1 nM hGH-RH(1-29)NH2 is administered for 3 minutes (1 mL) [0 minute response]. To check the duration of the antagonistic effect of the analogue, 1 nM hGH-RH(1-29)NH2 is applied 30, 60, 90, and 120 minutes later for 3 minutes [30, 60, 90, 120 min responses]. Net integral values of the GH responses are evaluated. GH responses are compared to and expressed as percent of the original GH response induced by 1 nM GH-RH(1-29)NH2. The effect of the new antagonists are compared to that of [Ac-Tyr^1,D-Arg^2 ]hGH-RH(1-29)NH2, the "Standard antagonist".
Growth Hormone Radio-immunoassay. Rat GH levels in aliquots of undiluted and diluted superfusion samples were measured by double-antibody radioimmunoassay using materials supplied by the National Hormone and Pituitary Program, Baltimore, Md. The results of RIA were analyzed with a computer program developed in our institute (V. Csernus and A. V. Schally, Harwood Academic (Greenstein, B. C. ed., London, pp. 71-109, 1991), hereby incorporated by reference. Inter-assay variation was less than 15% and intra-assay variation was less than 10%.

Where a SMILES comes first, the peptide text is derived from it. Bridges are numbered along the chain shown (N, C = ends). [ ]: non-standard residue; d: D form. The star is where a group is joined. Phe(4-Cl) = N[C@@H](Cc1ccc(Cl)cc1)C(=O)O; 2Nal = N[C@@H](Cc1ccc2ccccc2c1)C(=O)O; Cit = NC(=O)NCCC[C@H](N)C(=O)O; Agmatine = N=C(N)NCCCCN*; Nle = CCCC[C@H](N)C(=O)O; Orn = NCCC[C@H](N)C(=O)O; Abu = CC[C@H](N)C(=O)O; PhAc = O=C(Cc1ccccc1)*

As usually defined, the Ki is the equilibrium dissociation constant of an inhibitor or competing ligand from its target. Take `CCCC[C@H](NC(=O)[C@@H](NC(=O)[C@H](CC(=O)O)NC(=O)[C@H](CCC(N)=O)NC(=O)[C@H](CC(C)C)NC(=O)[C@H](CC(C)C)NC(=O)[C@H](CCCCN)NC(=O)[C@H](CCCNC(=N)N)NC(=O)[C@H](C)NC(=O)[C@H](CO)NC(=O)[C@H](CC(C)C)NC(=O)[C@H](CCC(N)=O)NC(=O)[C@H](CC)NC(=O)[C@H](CC(C)C)NC(=O)[C@@H](NC(=O)[C@H](CCCCN)NC(=O)[C@H](CCCNC(=N)N)NC(=O)[C@H](Cc1ccc(O)cc1)NC(=O)[C@H](CO)NC(=O)[C@H](CC)NC(=O)[C@@H](NC(=O)[C@H](Cc1ccc(Cl)cc1)NC(=O)[C@@H](NC(=O)[C@H](C)NC(=O)[C@H](CC(=O)O)NC(=O)[C@@H](CCCNC(=N)N)NC(=O)[C@H](Cc1ccc(O)cc1)NC(=O)Cc1ccccc1)[C@@H](C)CC)[C@@H](C)O)C(C)C)[C@@H](C)CC)C(=O)N[C@@H](CO)C(=O)N[C@@H](CCCNC(N)=O)C(N)=O` [Peptide 3, [PhAc^0,D-Arg^2,Phe(pCl)^6,Abu^8,15,Nle^27,Cit^29]hGH-RH(1-29)-NH2] (PhAc-Y[dR]DAI[Phe(4-Cl)]T[Abu]SYRKVL[Abu]QLSARKLLQDI[Nle]S[Cit]-NH2): the Ki in assay [1] came out at 0.301 ± 0.14 nM.

Regarding `CCCC[C@H](NC(=O)[C@@H](NC(=O)[C@H](CC(=O)O)NC(=O)[C@H](CCC(N)=O)NC(=O)[C@H](CC(C)C)NC(=O)[C@H](CC(C)C)NC(=O)[C@H](CCCCN)NC(=O)[C@H](CCCNC(=N)N)NC(=O)[C@H](C)NC(=O)[C@H](CO)NC(=O)[C@H](CC(C)C)NC(=O)[C@H](CCC(N)=O)NC(=O)[C@H](CC)NC(=O)[C@H](CC(C)C)NC(=O)[C@@H](NC(=O)[C@H](CCCCN)NC(=O)[C@H](CCCNC(=N)N)NC(=O)[C@H](Cc1ccc(O)cc1)NC(=O)[C@H](CO)NC(=O)[C@H](CC(N)=O)NC(=O)[C@@H](NC(=O)[C@H](Cc1ccc(Cl)cc1)NC(=O)[C@@H](NC(=O)[C@H](C)NC(=O)[C@H](CC(=O)O)NC(=O)[C@@H](CCCNC(=N)N)NC(=O)[C@H](Cc1ccc(O)cc1)NC(=O)Cc1ccccc1)[C@@H](C)CC)[C@@H](C)O)C(C)C)[C@@H](C)CC)C(=O)N[C@@H](CO)C(=O)NCCCCNC(=N)N` [Peptide 8, [PhAc^0,D-Arg^2,Phe(pCl)^6,Abu^15,Nle^27]hGH-RH(1-28)Agm] (PhAc-Y[dR]DAI[Phe(4-Cl)]TNSYRKVL[Abu]QLSARKLLQDI[Nle]S-Agmatine), the Ki in assay [1] was determined as 0.0159 ± 0.01 nM.

As to “[PhAc^0,Tyr(Me),D-Arg^2,Phe(pCl)^6,Ala^15,Nle^27 ]hGH-RH(1-29)-NH2 [Peptide 10]”, in assay [2], the “Inhibition of GH release (%) 0 min” value was determined as 84.8%, the “Inhibition of GH release (%) 30 min” value was found to be 35.2%, the “Inhibition of GH release (%) 60 min” value came out at 38.2% and the “Inhibition of GH release (%) 90 min” value was 29.8%. The “Inhibition of GH release (%) 120 min” value in assay [2] is on record as 33.8%.

On to `CCCC[C@H](NC(=O)[C@@H](NC(=O)[C@@H]1CCC(=O)NCCCC[C@H](NC(=O)[C@H](CCCNC(=N)N)NC(=O)[C@H](C)NC(=O)[C@H](CO)NC(=O)[C@H](CC(C)C)NC(=O)[C@H](CCC(N)=O)NC(=O)[C@H](C)NC(=O)[C@H](CC(C)C)NC(=O)[C@@H](NC(=O)[C@H]2CCCCNC(=O)CC[C@H](NC(=O)[C@@H](NC(=O)[C@H](Cc3ccc(Cl)cc3)NC(=O)[C@@H](NC(=O)[C@H](C)NC(=O)[C@H](CC(=O)O)NC(=O)[C@@H](CCCNC(=N)N)NC(=O)[C@H](Cc3ccc(O)cc3)NC(=O)Cc3ccccc3)[C@@H](C)CC)[C@@H](C)O)C(=O)N[C@@H](CO)C(=O)N[C@@H](Cc3ccc(O)cc3)C(=O)N[C@@H](CCCNC(=N)N)C(=O)N2)C(C)C)C(=O)N[C@@H](CC(C)C)C(=O)N[C@@H](CC(C)C)C(=O)N[C@@H](CCC(N)=O)C(=O)N1)[C@@H](C)CC)C(=O)N[C@@H](CO)C(=O)N[C@@H](CCCNC(=N)N)C(N)=O` [Peptide 23, cyclo^8,12; 21,25 [[PhAc^0,D-Arg^2,Phe(pCl)^6,Glu^8,25,D-Lys^12,Ala^15,Nle^27]hGH-RH(1-29)-NH2] (PhAc-Y[dR]DAI[Phe(4-Cl)]TESYR[dK]VLAQLSARKLLQEI[Nle]SR-NH2; lactam 8-12, 21-25), for which, in assay [1], the Ki came out at 0.456 nM.

As for `CCCC[C@H](NC(=O)[C@@H](NC(=O)[C@H](CC(=O)O)NC(=O)[C@H](CCC(N)=O)NC(=O)[C@H](CC(C)C)NC(=O)[C@H](CC(C)C)NC(=O)[C@H](CCCCN)NC(=O)[C@H](CCCNC(=N)N)NC(=O)[C@H](C)NC(=O)[C@H](CO)NC(=O)[C@H](CC(C)C)NC(=O)[C@H](CCC(N)=O)NC(=O)[C@H](C)NC(=O)[C@H](CC(C)C)NC(=O)[C@@H](NC(=O)[C@H](CCCCN)NC(=O)[C@H](CCCNC(=N)N)NC(=O)[C@H](Cc1ccc(O)cc1)NC(=O)[C@H](CO)NC(=O)[C@H](CC)NC(=O)[C@@H](NC(=O)[C@H](Cc1ccc2ccccc2c1)NC(=O)[C@@H](NC(=O)[C@H](C)NC(=O)[C@H](CC(=O)O)NC(=O)[C@@H](CCCNC(=N)N)NC(=O)[C@H](Cc1ccc(O)cc1)NC(=O)Cc1ccccc1)[C@@H](C)CC)[C@@H](C)O)C(C)C)[C@@H](C)CC)C(=O)N[C@@H](CC)C(=O)N[C@@H](CCCNC(=N)N)C(N)=O` [Peptide 12, [PhAc^0,D-Arg^2,Nal^6,Abu^8,28,Ala^15,Nle^27]hGH-RH(1-29)NH2] (PhAc-Y[dR]DAI[2Nal]T[Abu]SYRKVLAQLSARKLLQDI[Nle][Abu]R-NH2), in assay [2], the “Inhibition of GH release (%) 0 min” value is listed as 87.0%, the “Inhibition of GH release (%) 30 min” value was determined as 61.0%, the “Inhibition of GH release (%) 60 min” value came to 37.0% and the “Inhibition of GH release (%) 90 min” value is listed as 34.0%. Besides, the “Inhibition of GH release (%) 120 min” value in assay [2] worked out at 41.0%.

For `CCCC[C@@H]1NC(=O)[C@H]([C@@H](C)CC)NC(=O)[C@H](NC(=O)[C@H](CCC(N)=O)NC(=O)[C@H](CC(C)C)NC(=O)[C@H](CC(C)C)NC(=O)[C@H](CCCCN)NC(=O)[C@H](CCCNC(=N)N)NC(=O)[C@H](C)NC(=O)[C@H](CO)NC(=O)[C@H](CC(C)C)NC(=O)[C@H](CCC(N)=O)NC(=O)[C@H](C)NC(=O)[C@H](CC(C)C)NC(=O)[C@@H](NC(=O)[C@H](CCCCN)NC(=O)[C@H](CCCNC(=N)N)NC(=O)[C@H](Cc2ccc(O)cc2)NC(=O)[C@H](CO)NC(=O)[C@H](CC)NC(=O)[C@@H](NC(=O)[C@H](Cc2ccc3ccccc3c2)NC(=O)[C@@H](NC(=O)[C@H](C)NC(=O)[C@H](CC(=O)O)NC(=O)[C@@H](CCCNC(=N)N)NC(=O)[C@H](Cc2ccc(O)cc2)NC(=O)Cc2ccccc2)[C@@H](C)CC)[C@@H](C)O)C(C)C)CC(=O)NCCC[C@@H](C(N)=O)NC(=O)[C@H](CO)NC1=O` [Peptide 20, cyclo^25,29 [PhAc^0,D-Arg^2,Nal^6,Abu^8,Ala^15,D-Asp^25,Nle^27,Orn^29]hGH-RH(1-29)NH2] (PhAc-Y[dR]DAI[2Nal]T[Abu]SYRKVLAQLSARKLLQ[dD]I[Nle]S[Orn]-NH2; lactam 25-29), in assay [2], the “Inhibition of GH release (%) 0 min” value is 11.0%, the “Inhibition of GH release (%) 30 min” value is recorded as 0.0%, the “Inhibition of GH release (%) 60 min” value was found to be 0.0% and the “Inhibition of GH release (%) 90 min” value is 13.0%.

For the origin of these results see patent US5942489A, “HGH-RH(1-29)NH2 analogues having antagonistic activity” (The Administrators of the Tulane Educational Fund, priority 1996, dated 1999).
